Source: patent publication US20230085307A1, “PYRIDAZINONE COMPOUND AND HERBICIDE” (NISSAN CHEMICAL CORPORATION, priority 2019, published 2023)

Columns and labels:
[1] = system: late watergrass; test: Test Example 1: herbicidal activity, application before weed generation under submerged conditions (Table 16, symbol A); format: in vivo, late watergrass (Echinochloa oryzicola); conditions: 320 g/ha applied herbicide
Procedure, shortened: (§1)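 Submerged Wagner pots (alluvial soil, 4 cm water) sown with weed seeds and planted with 2.5-leaf rice seedlings; emulsifiable concentrate diluted in water applied to water surface on sowing day. Held in greenhouse at 25-30 °C; injury scored 0-5 by herbicidal rate after three weeks.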

[2] = system: Japanese bulrush; test: Test Example 1: herbicidal activity, application before weed generation under submerged conditions (Table 16, symbol B); format: in vivo, Japanese bulrush (Schoenoplectus juncoides); conditions: 320 g/ha applied herbicide
Procedure, shortened: as §1

[3] = system: oval-leafed pondweed; test: Test Example 1: herbicidal activity, application before weed generation under submerged conditions (Table 16, symbol C); format: in vivo, oval-leafed pondweed (Monochoria vaginalis); conditions: 320 g/ha applied herbicide
Procedure, shortened: as §1

[4] = system: barnyard grass; test: Test Example 3: herbicidal effect by foliage application, Wagner pot (Table 18, symbol H); format: in vivo, barnyard grass (Echinochloa crus-galli); conditions: 320 g/ha
Procedure, shortened: (§2)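 Plants were sown in alluvial soil held under 0.1–0.5 cm standing water and grown 14 days in a greenhouse at 25–30 °C. An emulsifiable formulation, water-diluted to the set dose, was then sprayed onto the foliage, and effects were scored three weeks later using previously defined criteria.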

[5] = system: Chinese sprangletop; test: Test Example 3: herbicidal effect by foliage application, Wagner pot (Table 18, symbol D); format: in vivo, chinese sprangletop (Leptochloa chinensis); conditions: 320 g/ha
Procedure, shortened: as §2

[6] = system: rice flat sedge; test: Test Example 3: herbicidal effect by foliage application, Wagner pot (Table 18, symbol E); format: in vivo, rice flat sedge (Cyperus iria); conditions: 320 g/ha
Procedure, shortened: as §2

[7] = system: southern crabgrass; test: Test Example 5: herbicidal effect by foliage application, plastic box (Table 20, symbol F); format: in vivo, southern crabgrass (Digitaria ciliaris); conditions: foliage application, AAH 320 g/ha
Procedure, shortened: (§3)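 Post-emergence foliar test in sterilized diluvial soil. Compound applied as water-diluted emulsion at a predetermined rate to 14-day-old plants; evaluation at three weeks.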

[8] = system: green foxtail; test: Test Example 5: herbicidal effect by foliage application, plastic box (Table 20, symbol G); format: in vivo, green foxtail (Setaria viridis); conditions: foliage application, AAH 320 g/ha
Procedure, shortened: as §3

[9] = system: barnyard grass; test: Test Example 5: herbicidal effect by foliage application, plastic box (Table 20, symbol H); format: in vivo, barnyard grass (Echinochloa crus-galli); conditions: foliage application, AAH 320 g/ha
Procedure, shortened: as §3

[10] = system: wild oat; test: Test Example 5: herbicidal effect by foliage application, plastic box (Table 20, symbol I); format: in vivo, wild oat (Avena fatua); conditions: foliage application, AAH 320 g/ha
Procedure, shortened: as §3

[11] = system: blackgrass; test: Test Example 5: herbicidal effect by foliage application, plastic box (Table 20, symbol J); format: in vivo, blackgrass (Alopecurus myosuroides); conditions: foliage application, AAH 320 g/ha
Procedure, shortened: as §3

[12] = system: Italian ryegrass; test: Test Example 5: herbicidal effect by foliage application, plastic box (Table 20, symbol K); format: in vivo, Italian ryegrass (Lolium multiflorum); conditions: foliage application, AAH 320 g/ha
Procedure, shortened: as §3

[13] = system: windgrass; test: Test Example 5: herbicidal effect by foliage application, plastic box (Table 20, symbol L); format: in vivo, windgrass (Apera spica-venti); conditions: foliage application, AAH 320 g/ha
Procedure, shortened: as §3

[14] = system: velvetleaf; test: Test Example 5: herbicidal effect by foliage application, plastic box (Table 20, symbol M); format: in vivo, velvetleaf (Abutilon theophrasti); conditions: foliage application, AAH 320 g/ha
Procedure, shortened: as §3

[15] = system: redroot pigweed; test: Test Example 5: herbicidal effect by foliage application, plastic box (Table 20, symbol N); format: in vivo, redroot pigweed (Amaranthus retroflexus); conditions: foliage application, AAH 320 g/ha
Procedure, shortened: as §3

[16] = system: lambsquarters; test: Test Example 5: herbicidal effect by foliage application, plastic box (Table 20, symbol O); format: in vivo, lambsquarters (Chenopodium album); conditions: foliage application, AAH 320 g/ha
Procedure, shortened: as §3

[17] = system: chickweed; test: Test Example 5: herbicidal effect by foliage application, plastic box (Table 20, symbol P); format: in vivo, common chickweed (Stellaria media); conditions: foliage application, AAH 320 g/ha
Procedure, shortened: as §3

[18] = system: persian speedwell; test: Test Example 5: herbicidal effect by foliage application, plastic box (Table 20, symbol R); format: in vivo, Persian speedwell (Veronica persica); conditions: foliage application, AAH 320 g/ha
Procedure, shortened: as §3

[19] = evaluated three weeks after application

`COc1cccc(OC)c1-c1sc2ccccc2c1-c1c(O)c(C)nn(C)c1=O` [1-158] was tested, and the “Herbicidal effect on A: late watergrass (grade 0-5)” value [1] was 0 (Herbicidal rate of 5% or less (almost no effect)), the “Herbicidal effect on B: Japanese bulrush (grade 0-5)” value [2] was 2 (Herbicidal rate of 20% or more and less than 40%) and the “Herbicidal effect on C: oval-leafed pondweed (grade 0-5)” value [3] was 0 (Herbicidal rate of 5% or less (almost no effect)). For the same compound, the “herbicidal effect on H (barnyard grass), rating 0-5” value [4] was 2 (Herbicidal rate of 20% or more and less than 40%), the “herbicidal effect on D (Chinese sprangletop), rating 0-5” value [5] was 0 (Herbicidal rate of 5% or less (almost no effect)) and the “herbicidal effect on E (rice flat sedge), rating 0-5” value [6] was 0 (Herbicidal rate of 5% or less (almost no effect)). The “F: southern crabgrass, herbicidal effect” value ([7]; three weeks after application) was 0 (Herbicidal rate of 5% or less (almost no effect)), the “G: green foxtail, herbicidal effect” value ([8]; three weeks after application) was 0 (Herbicidal rate of 5% or less (almost no effect)) and the “H: barnyard grass, herbicidal effect” value ([9]; three weeks after application) was 0 (Herbicidal rate of 5% or less (almost no effect)). The “I: wild oat, herbicidal effect” value ([10]; three weeks after application) was 0 (Herbicidal rate of 5% or less (almost no effect)), the “J: blackgrass, herbicidal effect” value ([11]; three weeks after application) was 0 (Herbicidal rate of 5% or less (almost no effect)) and the “K: Italian ryegrass, herbicidal effect” value ([12]; three weeks after application) was 0 (Herbicidal rate of 5% or less (almost no effect)). For the same compound, the “L: windgrass, herbicidal effect” value ([13]; three weeks after application) was 0 (Herbicidal rate of 5% or less (almost no effect)), the “M: velvetleaf, herbicidal effect” value ([14]; three weeks after application) was 0 (Herbicidal rate of 5% or less (almost no effect)) and the “N: redroot pigweed, herbicidal effect” value ([15]; three weeks after application) was 0 (Herbicidal rate of 5% or less (almost no effect)). The “O: lambsquarters, herbicidal effect” value ([16]; three weeks after application) was 0 (Herbicidal rate of 5% or less (almost no effect)), the “P: chickweed, herbicidal effect” value ([17]; three weeks after application) was 5 (Herbicidal rate of 90% or more (almost completely withered)) and the “R: persian speedwell, herbicidal effect” value ([18]; three weeks after application) was 5 (Herbicidal rate of 90% or more (almost completely withered)).

In the case of `Cc1nn(C)c(=O)c(-c2c(-c3cccc(OC(C)C#N)c3)sc3ccc(F)cc23)c1O` (stereo not drawn) [2-277], the “Herbicidal effect on A: late watergrass (grade 0-5)” value [1] was 1 (Herbicidal rate of 5% or more and less than 20%), the “Herbicidal effect on B: Japanese bulrush (grade 0-5)” value [2] was 0 (Herbicidal rate of 5% or less (almost no effect)) and the “Herbicidal effect on C: oval-leafed pondweed (grade 0-5)” value [3] was 2 (Herbicidal rate of 20% or more and less than 40%). The “F: southern crabgrass, herbicidal effect (criteria 0-5)” value [7, 19] was 0 (Herbicidal rate of 5% or less (almost no effect)), the “G: green foxtail, herbicidal effect (criteria 0-5)” value [8, 19] was 0 (Herbicidal rate of 5% or less (almost no effect)) and the “H: barnyard grass, herbicidal effect (criteria 0-5)” value [9, 19] was 0 (Herbicidal rate of 5% or less (almost no effect)). For the same compound, the “I: wild oat, herbicidal effect (criteria 0-5)” value [10, 19] was 0 (Herbicidal rate of 5% or less (almost no effect)), the “J: blackgrass, herbicidal effect (criteria 0-5)” value [11, 19] was 0 (Herbicidal rate of 5% or less (almost no effect)) and the “K: Italian ryegrass, herbicidal effect (criteria 0-5)” value [12, 19] was 0 (Herbicidal rate of 5% or less (almost no effect)). The “L: windgrass, herbicidal effect (criteria 0-5)” value [13, 19] was 0 (Herbicidal rate of 5% or less (almost no effect)), the “M: velvetleaf, herbicidal effect (criteria 0-5)” value [14, 19] was 0 (Herbicidal rate of 5% or less (almost no effect)) and the “N: redroot pigweed, herbicidal effect (criteria 0-5)” value [15, 19] was 2 (Herbicidal rate of 20% or more and less than 40%). For the same compound, the “O: lambsquarters, herbicidal effect (criteria 0-5)” value [16, 19] was 0 (Herbicidal rate of 5% or less (almost no effect)), the “P: chickweed, herbicidal effect (criteria 0-5)” value [17, 19] was 5 (Herbicidal rate of 90% or more (almost completely withered)) and the “R: persian speedwell, herbicidal effect (criteria 0-5)” value [18, 19] was 2 (Herbicidal rate of 20% or more and less than 40%).
